One series concerns Gram-negative. The conditions noted are these: cited from earlier work.
The nature of series [1]: Solubility in organic solvents (methanol, acetone, methanol-acetone mixture). The following applies: for solubility in methanol-acetone mixture: methanol-acetone containing 20% to 50% by volume methanol, room temperature or below. It is filed as physicochemical. An excerpt:
In carrying out the foregoing process, it is preferred to use sodium 2-ethylhexanoate as salt-forming reagent, but other reagents such as sodium acetate or the sodium salt of other carboxylic acids may be employed. A reaction inert organic solvent such as a liquid alkanol or ester, is preferably employed in combination with the ketone used as imidazolidinone-forming reagent as solvent. A minimal quantity of water may also be employed to facilitate dissolution. The preferred solvents are mixtures of methanol and acetone. […] Accordingly mixtures of these two solvents are employed to provide the desired differential solubility. Mixtures of methanol and acetone containing from 20% to 50% by volume of methanol are suitable. The antibiotic sodium salt 2,2-dimethylimidazolidinone derivative is insoluble in the methanol-acetone mixture at room temperature or below while the 2,2-dimethylimidazolidinone derivative sodium salt of the (E)-isomer is soluble. This difference in solubility provides a basis for the separation of these, otherwise very similar materials.

The next series is described as follows: Water solubility. It is filed as physicochemical.
Series [2] is described as follows: Solid state stability on storage (purity of sample). The conditions noted are these: for remaining at 672 h: 4 Weeks. It is filed as physicochemical.
Series [3] is described as follows: Aqueous solution stability (250 mg/ml) at room temperature. The conditions noted are these: for pH of the aqueous solution: aqueous solution for parenteral injection. It is filed as physicochemical.

For `C/C=C\C1=C(C(=O)O)N2C(=O)C(NC(=O)[C@H](N)c3ccc(O)cc3)[C@H]2SC1` (stereo partly drawn) [BMY-28100, 7-[D-2-amino-2-(4-hydroxyphenyl)acetamido]-3-[(Z)-1-propenyl]ceph-3-em-4-carboxylic acid], the “Gram-negative antibacterial activity compared to the (E)-isomer” value in the series with Gram-negative was “improved”.
In the case of `C/C=C/C1=C(C(=O)O)N2C(=O)C(N3C(=O)[C@@H](c4ccc(O)cc4)NC3(C)C)C2SC1` (some centres unmarked) [acetonide of BMY-28167], in series [1], the solubility in acetone entry was “substantially insoluble”, the solubility in methanol result is listed as “very soluble” and the “solubility in methanol-acetone mixture” value is on record as “soluble”.
In the case of `C/C=C\C1=C(C(=O)O)N2C(=O)C(N3C(=O)[C@@H](c4ccc(O)cc4)NC3(C)C)[C@H]2SC1` (some centres unmarked) [sodium 7-[2,2-dimethyl-4-(4-hydroxyphenyl)-5-oxo-1-imidazolidinyl]-3-[(Z)-1-propenyl]ceph-3-em-4-carboxylate], the water solubility entry in the series “Water solubility” was “several hundred”. In addition, the solubility in acetone entry in series [1] was “substantially insoluble”. Further, the solubility in methanol entry in series [1] is given as “very soluble”. Also, in series [1], the “solubility in methanol-acetone mixture” value was “insoluble”. The amount remaining at 24 h in series [2] (1 Day, 100 deg. C.) turned out to be 80%. Further, in series [2] (1 Week, 70 deg. C.), the share remaining at 168 h was determined as 94%. In addition, the amount remaining at 672 h in series [2] (37 deg. C.) amounted to 100%; in series [2] (45 deg. C.), 102%; in series [2] (56 deg. C.), 98.6%. In series [3] (250 mg/ml aqueous solution, room temperature, pH 7.2), the “time to 10% potency loss in aqueous solution” value is “approximately 2 hours”. Moreover, the “pH of the aqueous solution” value in series [3] came to 7.2.
Regarding `C/C=C\C1=C(C(=O)[O-])N2C(=O)C(NC(=O)[C@H](N)c3ccc(O)cc3)[C@H]2SC1.[Na+]` (stereo partly drawn) [sodium salt of the antibiotic, sodium 7-[D-2-amino-2-(4-hydroxyphenyl)acetamido]-3-((Z)-1-propenyl)ceph-3-em-4-carboxylate, reference compound], the “pH of the aqueous solution” value in series [3] is reported as 8.2. Also, the “time to 10% potency loss in aqueous solution” value in series [3] (sodium salt of the antibiotic per se, solution pH 8.2) was 30 min.

The values above are taken from patent publication US4727070A, “3-Propenzl cephalosporin isomer separation process and derivative” (Bristol-Myers Company, priority 1985, dated 1988).
